Values of other authors as cited in patent US11634860B2, “Articles and methods for dispensing metal ions into laundry systems” (Applied Silver, Inc., priority 2016, dated 2023).

Settings: silver salt formed with the binder's counterion

Solubility Limit [g/100 mL]	Structure (SMILES)
6.21E−16	[Ag+].[Ag+].[S-2] [Ag2S]
1.60E−04	[Cl][Ag] [AgCl]
100	[Ag+].[F-] [AgF]
